In patent US20190112580A1, “METHODS FOR TREATING CO[…] AND RELATED CULTURED CELLS” (priority 2017, published 2019):

How the values were obtained:
[1] = test system: CpG island located in the promoter region of the human ITGB1 gene; assay: Promoter methylation PCR of ITGB1 CpG island; type: cell-based; details: 5 μM, 24-hour treatment in proliferation medium before differentiation
Procedure: Myoblast cell preparations from CP and TD study subjects were exposed to 5 μM of the DNA methyltransferase inhibitor 5-AZA in proliferation medium. 5-AZA was introduced while the myoblast cell preparations were being developed in the high-serum medium, once the myoblast cell preparations were at about 70% cell confluence by visual inspection. The myoblast cell preparations each were cultured in a high-serum medium in the presence of 5 μM of 5-AZA for 24 hours. The myoblast cell preparations then had the 5-AZA washed off by switching the myoblast cell preparations each to a low-serum medium.
Myoblasts were seeded at 50,000 cells/well, at approximately 13,000 cells/cm^2, in a 12-well plate and maintained in the same proliferation medium as described in Example 1. The cells were allowed to proliferate at 37° C. and 5% CO2 until they reach up to 50-80% cell confluence by visual inspection. The proliferating myoblasts are then treated with 5 μM 5-AZA (Sigma-Aldrich) for 24 hours to induce DNA hypomethylation before differentiation. 5-AZA was obtained from a 10 uM stock solution diluted 1:2000. In a 2000 mL well, 1 mL of 5 μM 5-AZA was used. […]
The PCR amplification curves or the intensity of the amplified product in the agarose gel following electrophoresis may be used to quantify the levels of DNA methylation for a specific promoter region. […]

[2] = test system: ITGB1D; assay: ITGB1D protein quantification by Western blotting; type: cell-based, human; details: 5 μM applied before differentiation; CP cultures; 48 hours of differentiation in low serum medium
Procedure: After separation, proteins were transferred to 0.45 μm nitrocellulose membrane in a Tris-glycine buffer complemented with 20% methanol. To visualize bands and detect transfer efficiency, membranes were stained with Ponceau S. Membranes were then blocked in a buffer containing 10 mM Tris, 0.15 M NaCl, 0.1% Tween-20 and 1% BSA and incubated with a desired primary antibody (typically 1:500 to 1:1000 dilution) overnight at 4° C. After washing, membranes were incubated with peroxidase-conjugated secondary antibodies (typically at a 1:1000 dilution) for 1 hour at room temperature (Jackson ImmunoResearch Laboratories). Bandscan was identified using chemiluminescence (ECL). Bands also were analyzed by densitometry on a PXi imager (Syngene) and values expressed as arbitrary values of protein levels, normalized either by total proteins transferred on nitrocellulose membrane (as visualized with Ponceau S) or by another reference protein detected by Western blotting.
To test for protein expression levels as shown in FIG. 3A to 3E and FIGS. 4D and 4E, Western blotting was used. […]

Nc1ncn([C@@H]2O[C@H](CO)[C@@H](O)[C@H]2O)c(=O)n1 [5-AZA, 5-azacytidine]
DNA methylation of the CpG island in the ITGB1 promoter region [1]: sufficient to cause hypomethylation of the CpG island in the ITGB1 promoter region
ITGB1D protein expression levels [2]: sufficient to restore ITGB1D protein expression levels
